Source: EP4663632A1, “COMPOUNDS USEFUL FOR THE MODULATION OF THE ACTIVITY OF STING” (Sulis Therapeutics ApS, priority 2024, dated 2025)
“Also recorded” adds a separate entry of the source.

What was measured:
Format in all cases: cell-based
STING [1] = target: T1, STING (Homo sapiens, UniProt Q86WV6); test: Western Blot analysis of STING phosphorylation in human fibroblast cells (STING agonism); set-up: host or cells: HFF-1 human foreskin fibroblasts; details: 7.2µM-3.6nM; 24h
Experimental: Human fibroblast were treated with a titration of E22, E9, E14 and E16 (7.2µM-3.6nM) for 24h prior to cell lysis and subsequently total STING, pSTING and Vinculin were assessed by western blot using rabbit anti-STING (1:1000), anti-pSTING (1:1000), anti-Vinculin (1:1000) and 2nd anti-rabbit-HRP (1:10.000) or anti-mouse-HRP (1:7500). Proteins were visualized using ImageQuant800. Control cells included untreated cells and cells treated with 300nM diABZI C3.

STING [2] = target: T1, STING; test: Western Blot analysis for STING degradation in H596 cells; details: 24h; for STING degradation (Western Blot, Figure 1): H596 cells, 0.22 µM, 0.67 µM, 2 µM and 6 µM
Experimental: For cell lysing for Western Blot analysis cell culture plates were brought to ice, supernatant was removed by aspiration and cells washed 2x in ice-cold DPBS. Cells were lysed in 65 µL of RIPA buffer supplemented with cOmplete ULTRA Tablets protease inhibitor cocktail, PIERCE Phosphatase inhibitor mini tablet, Benzonase and 10mM NaF for 20 min on ice. Lysates were collected, cleared by centrifugation (13000xg for 10 min at 4°C). Samples were either analysed directly or stored at -80°C until analysis.
For Western Blotting, total protein concentration in each lysate was determined using PIERCE Gold BCA Assay kit according to manufactures protocol. 6 µg of total protein was mixed with 2x Laemmli buffer containing DTT, boiled for 5 min at 95°C, cooled on ice and loaded into each well of a 4-20% Criterion TGX gel. Proteins were separated by electrophoresis, by running for 1h at 150V. After separation proteins were blotted onto a PVDF membrane by semi-dry transfer using Trans-Blot turbo system at pre-defined BioRad MIDI protocol; 25V, 1A (fixed) for 30 min. Membranes were blocked for 1h in 5% skim milk in TBS-T20 on a rocker at room temperature followed by washing and exposure to primary antibodies against human STING 1:1000 (Cell Signalling, #13647) or loading controls Vinculin 1:1000 (Cell Signalling, #13901) or beta-Actin 1:10000 (Sigma, A5441) all diluted in 5% BSA in TBS-T20. Membranes were probed over night at 4°C on a rocker. Membranes were washed 3x in TBS-T20 followed by exposure to secondary HRP-conjugated anti-rabbit antibody or HRP-conjugated anti-mouse antibody diluted 1:10000 in 5% skim milk in TBS-T20 as appropriate. Membranes were incubated for 1h at room temperature on a rocker, then washed 3x in TBS-T20.
For generating DC50 values, the intensity of individual bands was measured using imaged and expression levels were calculated as a ratio of STING intensities vs. Reference protein intensities and normalized to DMSO control. The normalized ratios were plotted on a XY curve in GraphPad Prism where DC50 was estimated using a 4-parameter non-linear regression fitting curve.
(§1) To assess STING degradation in H596 cells (ATCC, HTB-178) cells were seeded at a density of 100.000 cells/well in 24-well Nunclon Delta surface treated culture plate in RPMI-1640 growth medium (supplemented with 10% FBS, 1% Pen-strep). Cells were incubated over-night at 37°C 5% CO2 to allow adhesion. Next day growth medium was renewed and a 5x concentration of test compounds (2.5% DMSO) diluted in growth medium were added to the appropriate well. Final DMSO concentration was 0.5%. Cell culture plates were returned to the incubator for additional 24h. Final test compound concentrations were 0.22 µM, 0.67 µM, 2 µM and 6 µM.
(§2) For cell lysis, western blotting and data analysis, the methods described above for HFF-1 cells were applied.

STING [3] = target: T1, STING; test: Western Blot analysis for STING degradation in H1650 cells; details: 0.22 µM, 0.67 µM, 2 µM and 6 µM
Experimental: as §1, §2
Similar protocols were carried out to assess STING degradation in H1650 cells (Figure 1, top panel) and HaCat cells (Figure 1, bottom panel) using Example compounds 14, 16 and 24, except that the seeding density was 150,000 cells/well and 250,000 cells/well for H1650 cells and HaCat cells, respectively.

STING [4] = target: T2, STING (Mus musculus, UniProt Q3TBT3); test: Western Blot analysis for STING degradation in mouse RAW264.7 cells; set-up: endogenous in cells; host or cells: RAW264.7 mouse cells; details: 19.5nM to 10 µM, 24 hours
T2 sequence (Q3TBT3 1-378): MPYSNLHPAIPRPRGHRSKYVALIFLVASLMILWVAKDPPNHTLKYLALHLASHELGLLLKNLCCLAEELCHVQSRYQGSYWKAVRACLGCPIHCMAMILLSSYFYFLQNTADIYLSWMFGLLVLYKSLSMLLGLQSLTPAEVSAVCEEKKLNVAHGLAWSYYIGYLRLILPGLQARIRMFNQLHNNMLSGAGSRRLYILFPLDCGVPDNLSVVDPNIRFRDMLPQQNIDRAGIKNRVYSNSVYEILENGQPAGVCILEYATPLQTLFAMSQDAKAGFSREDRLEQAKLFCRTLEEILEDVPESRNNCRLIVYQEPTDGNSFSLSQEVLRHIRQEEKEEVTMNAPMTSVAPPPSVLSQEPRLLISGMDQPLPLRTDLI
Experimental: To assess STING degradation in RAW264.7 cells, cells were seeded at a density of 60.000 cells/well in 24-well Nunclon Delta surface treated culture plate in RPMI-1640 growth medium (supplemented with 10% FBS, 1% Pen-strep). Cells were incubated over-night at 37°C 5% CO2 to allow adhesion. Next day growth medium was renewed and a 5x concentration of test compounds (2.5% DMSO) diluted in growth medium were added to the appropriate well. Final DMSO concentration was 0.5%. Cells were treated with a titration of test compound from 19.5nM to 10 µM 24 hours prior to cells lysis and subsequently analyzed by WB using anti-STING (1:1000) and anti-VCL (1:1000) antibodies. Controls included UT (DMSO) and 1.8µM diABZI treated cells.
as §2

STING [5] = target: T1, STING; test: Western Blot analysis for STING degradation (DC50) in HFF-1 cells; set-up: host or cells: HFF-1 human foreskin fibroblasts; details: 24h; reference protein beta-actin

T1 sequence (Q86WV6 whole entry): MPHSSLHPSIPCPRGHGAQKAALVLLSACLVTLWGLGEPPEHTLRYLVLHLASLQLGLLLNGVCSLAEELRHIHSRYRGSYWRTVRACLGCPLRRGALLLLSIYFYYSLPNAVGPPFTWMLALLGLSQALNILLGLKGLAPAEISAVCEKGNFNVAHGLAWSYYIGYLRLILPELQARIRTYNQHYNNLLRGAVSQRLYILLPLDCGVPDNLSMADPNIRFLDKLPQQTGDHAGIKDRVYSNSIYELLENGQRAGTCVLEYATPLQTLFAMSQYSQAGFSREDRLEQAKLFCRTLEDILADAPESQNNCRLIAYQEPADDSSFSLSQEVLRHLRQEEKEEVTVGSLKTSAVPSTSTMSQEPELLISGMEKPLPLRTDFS

SMILES	STING phosphorylation (pSTING) (STING [1])	total STING protein levels (STING [1])	DC50 (STING [2]; reference protein beta-actin) [nM]	STING degradation (Western Blot, Figure 1) (STING [2])	STING degradation (Western Blot, Figure 1) (STING [3])	STING degradation (Western Blot, Figure 2) (STING [4])	DC50 (STING [5]) [nM]
CCn1nc(C)cc1C(=O)N=c1n(C)c2cc(C(N)=O)ccc2n1CCC(CCn1c(=NC(=O)c2cc(C)nn2CC)n(C)c2cc(C(N)=O)ccc21)OCC(=O)NCCOCCOCCOCCOCCC(=O)NCCOCCOCCOCCOCC(=O)N[C@H](C(=O)N1C[C@H](O)C[C@H]1C(=O)NCc1ccc(-c2scnc2C)cc1)C(C)(C)C (stereo partly drawn) [Example 14]	no STING phosphorylation was observed	total STING protein levels were observed to decrease	1000 to 5000	inducing visible degradation in H1650 and H596 at the higher concentrations tested	inducing visible degradation in H1650 and H596 at the higher concentrations tested	dose-dependent STING degradation	–
CCn1nc(C)cc1C(=O)N=c1n(C)c2cc(C(N)=O)ccc2n1CCC(CCn1c(=NC(=O)c2cc(C)nn2CC)n(C)c2cc(C(N)=O)ccc21)OCC(=O)NCCOCCOCCOCCOCCC(=O)NCCOCCOCCOCCOCCNc1cccc2c1C(=O)N(C1CCC(=O)NC1=O)C2=O (stereo not drawn) [Example 16]	no STING phosphorylation was observed	total STING protein levels were observed to decrease	–	induced STING degradation in all cell lines tested at all concentrations tested; also recorded: showed a more potent effect of induction of STING degradation than Example compound 14	induced STING degradation in all cell lines tested at all concentrations tested	dose-dependent STING degradation	< 200
